Data taken from the supplement of paper PMC10307832.

How the values were obtained:
Assay in all cases: relative viability (nuclei count vs DMSO), 5 days (fraction); higher = more cells survive
AGI-6780 + Navitoclax = compound: O=C(Nc1cccc(C(F)(F)F)c1)Nc1cc(S(=O)(=O)NC2CC2)ccc1-c1ccsc1 [AGI-6780] + CC1(C)CCC(c2ccc(Cl)cc2)=C(CN2CCN(c3ccc(C(=O)NS(=O)(=O)c4ccc(N[C@H](CCN5CCOCC5)CSc5ccccc5)c(S(=O)(=O)C(F)(F)F)c4)cc3)CC2)C1 [Navitoclax] (partner 0.5 µM)
In short: (§1)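 Relative viability is defined as nuclei in treated wells over nuclei in vehicle wells. Duplicate plates were run and medians reported. Lung cancer cell lines in 1536-well plates were dosed by pin tool one day after seeding, with one drug or with a fixed anchor-drug dose plus five library-drug doses (not always all listed) in √10 steps, and nuclei were counted after 5 days.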

AGI-6780 + Linsitinib = compound: O=C(Nc1cccc(C(F)(F)F)c1)Nc1cc(S(=O)(=O)NC2CC2)ccc1-c1ccsc1 [AGI-6780] + C[C@]1(O)C[C@@H](c2nc(-c3ccc4ccc(-c5ccccc5)nc4c3)c3c(N)nccn32)C1 [Linsitinib] (partner 1 µM)
In short: as §1

AGI-6780 + Pemetrexed = compound: O=C(Nc1cccc(C(F)(F)F)c1)Nc1cc(S(=O)(=O)NC2CC2)ccc1-c1ccsc1 [AGI-6780] + Nc1nc2[nH]cc(CCc3ccc(C(=O)N[C@@H](CCC(=O)O)C(=O)O)cc3)c2c(=O)[nH]1 [Pemetrexed] (partner 0.2 µM)
In short: as §1

AGI-6780 + Vorinostat = compound: O=C(Nc1cccc(C(F)(F)F)c1)Nc1cc(S(=O)(=O)NC2CC2)ccc1-c1ccsc1 [AGI-6780] + O=C(CCCCCCC(=O)Nc1ccccc1)NO [Vorinostat] (partner 1 µM)
In short: as §1

Row | Cell Line | relative viability (AGI-6780 + Navitoclax; first compound 0.08 µM) | relative viability (AGI-6780 + Navitoclax; first compound 0.253 µM) | relative viability (AGI-6780 + Navitoclax; first compound 0.8 µM) | relative viability (AGI-6780 + Navitoclax; first compound 2.53 µM) | relative viability (AGI-6780 + Navitoclax; first compound 8 µM) | relative viability (AGI-6780 + Linsitinib; first compound 0.08 µM) | relative viability (AGI-6780 + Linsitinib; first compound 0.253 µM) | relative viability (AGI-6780 + Linsitinib; first compound 0.8 µM) | relative viability (AGI-6780 + Linsitinib; first compound 2.53 µM) | relative viability (AGI-6780 + Linsitinib; first compound 8 µM) | relative viability (AGI-6780 + Pemetrexed; first compound 0.08 µM) | relative viability (AGI-6780 + Pemetrexed; first compound 0.253 µM) | relative viability (AGI-6780 + Pemetrexed; first compound 0.8 µM) | relative viability (AGI-6780 + Pemetrexed; first compound 2.53 µM) | relative viability (AGI-6780 + Pemetrexed; first compound 8 µM) | relative viability (AGI-6780 + Vorinostat; first compound 0.08 µM) | relative viability (AGI-6780 + Vorinostat; first compound 0.253 µM) | relative viability (AGI-6780 + Vorinostat; first compound 0.8 µM) | relative viability (AGI-6780 + Vorinostat; first compound 2.53 µM) | relative viability (AGI-6780 + Vorinostat; first compound 8 µM)
1 | HCC-366 | 1.03 | 1.12 | 0.984 | 0.944 | 1.05 | 0.891 | 0.682 | 0.637 | 0.536 | 0.568 | 0.177 | 0.174 | 0.157 | 0.259 | 0.168 | 0.355 | 0.315 | 0.346 | 0.285 | 0.446
2 | HCC-827 | 1.09 | 1.06 | 1 | 1.01 | 0.935 | 1.01 | 0.96 | 0.872 | 0.989 | 0.942 | 0.237 | 0.257 | 0.264 | 0.256 | 0.27 | 0.983 | 0.849 | 0.896 | 0.802 | 1
3 | HOP-62 | 0.974 | 1.01 | 1.13 | 1.11 | 1.19 | 0.945 | 1.3 | 1.08 | 1.04 | 0.826 | 0.336 | 0.303 | 0.378 | 0.346 | 0.385 | 0.61 | 0.833 | 0.655 | 0.617 | 0.813
4 | IA-LM | 0.761 | 0.768 | 0.908 | 0.787 | 0.959 | 0.58 | 0.627 | 0.762 | 0.536 | 0.56 |  |  |  |  |  |  | 0.857 | 1.06 | 1.04 | 0.778
5 | LC-2-ad | 0.552 | 0.468 | 0.505 | 0.249 | 0.659 | 0.824 | 0.9 | 0.878 | 0.882 | 0.791 | 0.278 | 0.254 | 0.255 | 0.253 | 0.284 | 0.754 | 0.72 | 0.776 | 0.661 | 0.726
6 | LCLC-97TM1 | 0.503 | 0.702 | 0.642 |  | 0.431 | 0.177 | 0.252 | 0.21 |  | 0.186 | 0.173 | 0.157 | 0.192 | 0.156 | 0.192 | 0.739 | 0.886 | 0.785 | 0.572 | 0.598
7 | LCLC-103H |  |  |  |  |  | 1.18 | 1.15 | 0.963 | 1.06 | 1.06 | 0.455 | 0.421 | 0.477 | 0.51 | 0.473 | 0.746 | 0.861 | 0.759 | 0.576 | 0.781
8 | LK-2 | 0.891 | 0.844 | 1.01 |  | 1.11 | 0.617 | 0.646 | 0.536 |  | 0.522 | 0.228 | 0.359 | 0.28 |  | 0.366 | 0.334 | 0.286 | 0.347 | 0.259 | 0.567
9 | NCI-H358 |  |  |  |  |  | 0.792 | 0.721 | 0.752 | 0.551 | 0.663 | 0.145 | 0.182 | 0.148 | 0.173 | 0.166 | 1.07 | 0.616 | 0.709 | 0.602 | 0.675
10 | NCI-H522 |  |  |  |  |  |  |  |  |  |  | 1.23 | 1.04 | 0.913 |  | 1.05 | 0.922 | 0.946 | 1.05 |  | 0.825
11 | NCI-H650 |  |  |  |  |  | 0.906 | 0.867 | 0.992 | 0.883 | 0.895 | 0.935 | 0.943 | 0.993 | 0.893 | 0.945 | 0.465 | 0.466 | 0.393 | 0.389 | 0.465
12 | NCI-H661 |  |  |  |  |  | 0.624 | 0.53 | 0.599 | 0.458 | 0.534 | 0.909 | 0.956 | 0.967 | 0.969 | 0.905 | 0.815 | 0.863 | 0.809 | 0.793 | 0.734
13 | NCI-H727 | 0.493 | 0.448 | 0.474 | 0.369 | 0.494 | 0.285 | 0.331 | 0.325 | 0.235 | 0.285 |  |  |  |  |  | 1.16 | 1.01 | 1.15 | 1.13 | 1.16
14 | NCI-H1299 | 1.02 | 1.06 | 0.97 | 1.06 | 1.02 | 1.01 | 0.987 | 0.941 | 1.05 | 1.04 |  |  |  |  |  |  |  |  |  | 
15 | NCI-H1563 |  |  |  |  |  | 1.27 | 1.22 | 1.24 | 1.11 | 1.08 | 0.712 | 0.822 | 0.748 | 0.655 | 0.518 |  |  |  |  | 
16 | NCI-H1648 |  |  |  |  |  |  |  |  |  |  | 0.655 | 0.884 | 0.864 | 0.841 | 0.779 | 0.377 | 0.689 | 0.566 | 0.423 | 0.419
17 | NCI-H1650 | 1.25 | 1.08 | 1.29 | 1.19 | 1.14 |  |  |  |  |  | 0.4 | 0.367 | 0.366 | 0.418 | 0.358 | 0.583 | 0.592 | 0.646 | 0.489 | 0.549
18 | NCI-H1703 | 1.49 | 1.21 | 1.25 | 1.1 | 1.25 | 1.18 | 0.978 | 0.736 | 0.559 | 0.166 |  |  |  |  |  |  |  |  |  | 
19 | NCI-H1792 | 0.377 | 0.613 | 0.834 | 0.629 | 0.625 | 0.53 | 0.519 | 0.519 | 0.544 | 0.408 | 0.993 | 0.842 | 0.79 |  | 0.844 |  |  |  |  | 
20 | NCI-H2170 | 0.595 | 0.54 | 0.674 |  | 0.564 |  |  |  |  |  | 0.285 | 0.267 | 0.289 |  | 0.272 | 0.882 | 0.996 | 0.835 |  | 0.833
21 | NCI-H2342 |  |  |  |  |  |  |  |  |  |  | 0.777 | 0.781 | 0.835 | 0.715 | 0.85 | 0.749 | 0.824 | 0.874 | 0.663 | 1.1
22 | SW 900 |  |  |  |  |  |  |  |  |  |  | 0.461 | 0.484 | 0.457 | 0.524 | 0.469 | 0.485 | 0.484 | 0.707 | 0.548 | 0.586
